# Measured values reported in ChEMBL document CHEMBL3244082, “5-allyl-9-oxobenzomorphans. 3. Potent narcotic antagonists and analgesics-antagonists in the series of substituted 2',9beta-dihydroxy-6,7-benzomorphans” (1977).
# How the values were obtained:
# Assay type in all cases: functional
# Mus musculus [1] = assay: Analgesic activity in po dosed mouse assessed as increase in response time by hot plate test relative to control
# Mus musculus [2] = assay: Analgesic activity in po dosed mouse by hot plate test
# Mus musculus [3] = assay: Narcotic antagonist activity in sc dosed mouse assessed as inhibition of oxymorphone-induced straub tail response administered 10 mins post oxymorphone-challenge
# Mus musculus [4] = assay: Analgesic activity in mouse assessed as reduction in phenylquinone-induced writhing at 1.25 mg/kg, sc administered 15 mins prior to phenylquinone-challenge measured up to 10 mins relative to control; set-up: scale not given: the % may be the effect or the level left; conditions: route subcutaneous
# Mus musculus [5] = assay: Analgesic activity in sc dosed mouse assessed as reduction in phenylquinone-induced writhing administered 15 mins prior to phenylquinone-challenge measured up to 10 mins
# Mus musculus [6] = assay: Analgesic activity in mouse assessed as reduction in phenylquinone-induced writhing at 2.5 mg/kg, sc administered 15 mins prior to phenylquinone-challenge measured up to 10 mins relative to control; set-up: scale not given: the % may be the effect or the level left; conditions: route subcutaneous
# Rattus norvegicus [7] = assay: Analgesic activity in sc dosed rat assessed as reduction in phenylquinone-induced writhing administered 15 mins prior to phenylquinone-challenge measured up to 10 mins
# Rattus norvegicus [8] = assay: Narcotic antagonist activity in sc dosed rat assessed as reversal of morphine-induced analgesia by tail-flick test
# Rattus norvegicus [9] = assay: Narcotic antagonist activity in sc dosed rat assessed as reversal of oxymorphone-induced loss of righting reflex
# Mus musculus [10] = assay: Analgesic activity in mouse assessed as reduction in phenylquinone-induced writhing at 40 mg/kg, sc administered 15 mins prior to phenylquinone-challenge measured up to 10 mins relative to control; set-up: scale not given: the % may be the effect or the level left; conditions: route subcutaneous
# Mus musculus [11] = assay: Analgesic activity in mouse assessed as reduction in phenylquinone-induced writhing at 20 mg/kg, sc administered 15 mins prior to phenylquinone-challenge measured up to 10 mins relative to control; set-up: scale not given: the % may be the effect or the level left; conditions: route subcutaneous
# [12] = Mus musculus, sc, 10 min, read-out: ED50
# [13] = Mus musculus, sc, read-out: ED50
Compound,ED50 (Mus musculus [3]; [12]),ED50 (Mus musculus [5]; [13]),other results
Br.CN1CC[C@]23CC(CBr)O[C@]2(C)[C@H]1Cc1ccccc13 (some centres undefined),> 40 mg/kg,–,%max (Mus musculus [1]): 32%; ED50 (Mus musculus [2]): 64 mg/kg
C=CC[C@]12CCN(C)[C@H](Cc3ccc(O)cc31)[C@H]2O,> 40 mg/kg,1.9 mg/kg,Activity (Mus musculus [4]): 1.25%; Activity (Mus musculus [6]): 78%
CCC[C@]12CCN(CC3CCC3)[C@H](Cc3ccc(O)cc31)[C@H]2O,2.5 mg/kg,0.24 mg/kg,–
C=CC[C@]12CCN(CC3CC3)[C@H](Cc3ccc(O)cc31)[C@@]2(C)O.O=C(O)C(O)C(O)C(=O)O (stereo in doubt; (-)-23a),–,44 mg/kg,ED50 (Rattus norvegicus [7]): 8 mg/kg; ED50 (Rattus norvegicus [8]): 0.006 mg/kg; ED50 (Mus musculus [3]): 0.08 mg/kg
CN(C)CC1C[C@]23CCN(C)[C@H](Cc4ccccc42)[C@@]3(C)O1.Cl (some centres undefined),> 40 mg/kg,–,ED50 (Mus musculus [2]): > 40 mg/kg
CCC[C@]12CCN(CC3CCC3)[C@H](Cc3ccc(O)cc31)[C@@]2(C)O.Cl,1.17 mg/kg,0.18 mg/kg,ED50 (Rattus norvegicus [8]): 0.084 mg/kg
C=CC[C@]12CCN(CC3CC3)[C@H](Cc3ccc(O)cc31)[C@@]2(C)O.O=C(O)C(O)C(O)C(=O)O (stereo in doubt; (+)-23a),–,–,ED50 (Mus musculus [5]): >40 mg/kg; ED50 (Mus musculus [3]): >40 mg/kg
CCC[C@]12CCN(CC3CC3)[C@H](Cc3ccc(O)cc31)[C@@]2(C)O,0.074 mg/kg,44 mg/kg,ED50 (Rattus norvegicus [7]): 30 mg/kg; ED50 (Rattus norvegicus [8]): 0.008 mg/kg; ED50 (Rattus norvegicus [9]): 0.013 mg/kg
CCC[C@]12CCN(CC)[C@H](Cc3ccc(O)cc31)[C@@]2(C)O,> 40 mg/kg,2.1 mg/kg,–
CC1C[C@]23CCN(C4CC4)[C@H](Cc4ccc(O)cc42)[C@H]3O1 (some centres undefined),8 mg/kg,30 mg/kg,Activity (Mus musculus [10]): 67%; Activity (Mus musculus [11]): 23%
C=CC[C@]12CCN(Cc3ccco3)[C@H](Cc3ccc(O)cc31)[C@@]2(C)O.O=C(O)C(=O)O,1.3 mg/kg,36 mg/kg,Activity (Mus musculus [10]): 66%; Activity (Mus musculus [11]): 0%
C=CC[C@]12CCN(CC3CCC3)[C@H](Cc3ccc(O)cc31)[C@H]2O,1.8 mg/kg,0.3 mg/kg,–
C=CC[C@]12CCN(CC)[C@H](Cc3ccc(O)cc31)[C@@]2(C)O.O=C(O)C(=O)O,> 40 mg/kg,2 mg/kg,–
